Series [1] relates to UGT2B7. As to the kind of experiment: UGT2B7 metabolism test in vivo. The arrangement: species or system rat. To be noted: rats with liver humanization vs control group, after oral AZT. Here is the method:
Liver humanized and […] FRG rats were orally administered 15 mg/kg zidovudine (Wako), and peripheral blood was collected after 0, 0.5, 1, 2, 4 and 8 hours. After 30 μl of plasma was diluted 2 fold with PBS, the contents of substrates and metabolites were detected by LC-MS/MS (Agilent 1200 HPLC and ABI 4000 mass-spectrometer).

Series [2] deals with UGT2B7. To be noted: in rats; cited from earlier work.
For series [3], the target named is T1, UGT2B7 (Homo sapiens, UniProt P16662).
T1 sequence (P16662 24-529): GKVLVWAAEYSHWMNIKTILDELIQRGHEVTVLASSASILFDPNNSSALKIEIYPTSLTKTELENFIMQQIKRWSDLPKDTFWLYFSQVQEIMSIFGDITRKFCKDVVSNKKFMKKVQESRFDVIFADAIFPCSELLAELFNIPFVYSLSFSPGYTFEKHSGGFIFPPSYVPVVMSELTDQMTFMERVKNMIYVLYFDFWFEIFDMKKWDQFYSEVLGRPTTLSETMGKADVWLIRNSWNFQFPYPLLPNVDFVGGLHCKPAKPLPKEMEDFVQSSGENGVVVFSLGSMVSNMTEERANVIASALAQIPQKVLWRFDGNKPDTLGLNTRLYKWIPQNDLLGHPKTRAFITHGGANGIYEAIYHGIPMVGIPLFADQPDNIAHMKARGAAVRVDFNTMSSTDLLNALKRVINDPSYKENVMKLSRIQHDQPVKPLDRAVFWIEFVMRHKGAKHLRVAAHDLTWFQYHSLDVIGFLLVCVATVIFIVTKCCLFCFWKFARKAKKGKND
To be noted: in human; cited from earlier work.

Another series has as its system humanized livers. As to the kind of experiment: Detection of humanized liver tumorigenesis (liver/bodyweight ratio, histology, AFP). To be noted: NTBC^P, 7 months after PHH transplantation.
In series [4] the test system is rat livers. As to the kind of experiment: Sirius red staining, degree of liver fibrosis. It counts as in vivo. To be noted: programmed NTBC 7+4 compared with 5+4.
The test system of series [5] is primary human hepatocytes (PHH). Briefly: Repopulation rate of human hepatocytes in FRG rat livers (hNuclei immunostaining). It counts as in vivo. The following applies: cyclic NTBC withdrawal/administration based on stepped withdrawal or body weight change, Fah-deficient rats, preliminary tests. Here is the method: (§1) 12. Primary Hepatocyte Transplantation and Programmed NTBC Circulation • (1) Preparation before transplantation: Female FRG rats aged 7-8 weeks were intraperitoneally injected with 30 mg/kg Retrorsine 2 weeks before transplantation, and the concentration of NTBC in daily water was reduced from the normal maintenance concentration (5˜8 mg/L) to low concentration (0.2 mg/L) 1 week before transplantation. When the programmed NTBC cycle began, daily NTBC water was provided according to the method of 0.2 mg/L×7 days+5 mg/L×4 days (one cycle period of 11 days in total).
By immunostaining of the human-specific marker hNuclei, the repopulation rates of humanized rat livers can be calculated.

In series [6] the test system is hALB-positive hepatocytes. Briefly: Ki67 and hALB counterstaining of humanized livers. It counts as in vivo, rat. The following applies: NTBC^P, 7 months after transplantation. On the procedure:
8. Immunofluorescence Staining • (1) Frozen sections (7 μm) were fixed in 4% PFA at room temperature for 10 minutes, or in methanol:acetone (1:1) at −30° C. for 30 minutes. • (2) Wash three times with 0.1% tween-PBS for 5 minutes each time. • (3) 10% goat or donkey serum was used for blocking for 60 minutes at room temperature. • (4) The primary antibody was used for incubation overnight at 4° C. • (5) Wash three times with 0.1% tween-PBS for 5 minutes each time. • (6) The secondary antibody conjugated with fluorescein was used for incubation at room temperature for 60 minutes. • (7) Wash three times with PBS for 5 minutes each time. • (8) DAPI was added and the sections were mounted by mounting medium and preserved.

In another series the test system is Afp. Briefly: Quantitative qPCR of rat Afp gene in liver. To be noted: long-term programmed NTBC controlling (5+4 and 7+4). It counts as in vivo. On the procedure:
1 μg RNA was reverse-transcribed into cDNA with Revert Aid RT kit according to manufacturer's instructions. According to the instructions of THUNDERBIRD SYBR qPCR Mix kit, cDNA was amplified and quantitatively analyzed on a quantitative PCR machine. Relative expression levels of target genes were based on ACTB as an internal reference. All data were repeated at least twice.

Series [7] relates to Fah−/−Rag2−/−IL2rg−/− rats (FRG rats). Briefly: Survival of FRG rats under NTBC supply / programmed NTBC controlling. It counts as in vivo, rat. On the procedure: Fah^−/−Rag2^−/−IL2rg^−/− rats (FRG rats) were housed in the Experimental Animal Center of Jiangsu University.
In the past feeding, FRG rats were daily supplied with 5-8 mg/L. In the present disclosure, the lowest dose of 5 mg/L NTBC was set as 100% NTBC; According to the weight (250-300 g) and the amount of water (25-50 ml/day) of rats, we can get: • 4% NTBC: equivalent to an average of 0.03 mg/kg/day; • 100% NTBC: equivalent to an average of 0.75 mg/kg/day. • (2) The transplantation was performed under an anesthesia machine using isoflurane. The rat was fixed with its abdomen facing upward, and cleaned and disinfected with iodine and alcohol after dehairing. • (3) By cutting the epidermis and muscle layers, the hepatic portal vein was found. 2×10^6 human primary hepatocytes (resuspended in 800 μl DMEM+10% FBS) were slowly injected with a 26G needle. After completing the injection and paused for a few seconds, the needle was then pulled out, with the needle port quickly pressed with a sterile cotton swab. • (4) After pressing for about 1 minute, with no blood effusion be observed, the muscle and epidermis were sutured and the wound was disinfected with alcohol cotton.
The optimal NTBC maintenance concentration was determined by comparing the survival rate of rats at different NTBC concentrations (0%, 1%, 4%, 10%, 100%).
Due to a long period of the humanization process and in order to further improve the long-term survival rate of rats under liver injury, the inventors designed a series of NTBC dosage regimens, which are called Programmed NTBC controlling scheme with a fixed cycle period (Programmed NTBC controlling, NTBC^P), including 5, 7 and 9 days of maintenance in 4% NTBC conditions, respectively, and 4 days of 100% NTBC recovery after that to alleviate accumulated liver injury (FIG. 2C).

The test system of the next series is FRG rats. As to the kind of experiment: Liver function test (serum ALT and AST). It counts as in vivo, rat. Here is the method: The content of alanine aminotransferase (ALT) and aspartate aminotransferase (AST) in rat serum was measured according to the instructions of biochemical analyzer FUJI DRI-CHEM 7000V (Fujifilm. Japan).
In series [8] the test system is primary human hepatocytes (PHH). Briefly: Measurement of human albumin secretion in serum of PHH-transplanted rats (ELISA). It counts as in vivo, rat. Here is the method: 100 μl of rat peripheral blood was collected through the tail vein, and after coagulation at room temperature, centrifuged at 400-g for 10 minutes, with the supernatant collected to obtain serum. The secretion level of human albumin was tested according to the instructions of the Human Albumin ELISA Quantitation Set kit. Serum was diluted 10-100000 times according to the actual concentration, so that the calculated value falls within the linear range of the standard curve to obtain accurate values.
as §1
In general terms: An ELISA detects its analyte on a solid surface through an enzyme-linked reagent.

Series [9] deals with rat livers. As to the kind of experiment: Ki67 staining of rat livers with or without RS pretreatment. It counts as in vivo. To be noted: RS pretreatment vs none, after 2 months of programmed NTBC controlling. On the procedure: 7. Immunohistochemistry • (1) The steps of dewaxing and rehydration are the same as above. • (2) Draw a circle around the sample with an ImmunoPen, drop a drop of 3% H2O2 for 15 minutes at room temperature for blocking endogenous peroxidase. • (3) Wash twice with PBS for 5 minutes each time. • (4) The blocking was carried with 1:20 Normal horse serum (dissolved in 1% BSA-PBS), incubated at room temperature for 20 minutes and washed for 3 times with PBS. • (5) The primary antibody was added, then the slices were put in a humid box, sealed and kept overnight at 4 degrees. • (6) Wash three times with PBS for 5 minutes each time. • (7) Secondary antibody was added and incubated at room temperature for 30 minutes. Wash three times with PBS for 5 minutes each time. • (8) AB solution in ABC kit (1:100 dilution of solution A and B) was added and incubated at room temperature for 30 minutes. Wash three times with PBS for 5 minutes each time. • (9) DAB coloration was carried and the time for coloration was adjusted according to different antibodies. • (10) Hematoxylin counterstaining for 20 minutes. Rinse with tap water for half an hour. • (11) Gradient dehydration: 50% ethanol, 70% ethanol, 80% ethanol, 90% ethanol, 100% ethanol, each for 2 minutes. • (12) After 15-30 minutes of xylene, sections were sealed with neutral resin and saved. […]

These results are taken from patent publication US20240108590A1, “MAINTENANCE OF PROGRAMMED CHRONIC LIVER INJURY OF FAH GENE-DEFICIENT ANIMALS AND APPLICATION THEREOF IN PREPARATION OF HETEROLOGOUS LIVER MODELS” (Jiangsu University, priority 2020, published 2024).

As to `Cc1cn([C@H]2C[C@H](N=[N+]=[N-])[C@@H](CO)O2)c(=O)[nH]c1=O` [AZT, zidovudine], the “AZT-5′-glucuronide concentration” value with UGT2B7 [1] is “significantly higher”. In addition, the “metabolic conversion rate of AZT to AZT-5′-glucuronide” value in the series on UGT2B7 [2] is recorded as 10%. Besides, the “AZT metabolized to AZT-5′-glucuronide” value at UGT2B7 [3] is recorded as 75%.

For the molecule `O=C1CCCC(=O)C1C(=O)c1ccc(C(F)(F)F)cc1[N+](=O)[O-]` [NTBC, 2-(2-nitro-4-trifluoromethylbenzoyl)-1.3 cyclohexanedione], in the series on humanized livers, the “AFP gene and protein levels” value is “no abnormal up-regulation”; the “tumor formation (histology)” value is “no tumor formation”. Also, the liver/bodyweight ratio result in the series with humanized livers (vs nontransplanted controls) is recorded as “not significantly increased”. In addition, in the series with rat livers [4], the “degree of liver fibrosis” value is “more significant”. Also, the “proportion of human hepatocyte repopulation” value in [5] was “less than 10%”. The “proportion of Ki67-positive cells in hALB-positive hepatocytes” value in [6] is “more than 10%”. Moreover, the “expression of rat liver oncogene Afp” value with Afp is “did not lead to abnormal upregulation”. This molecule displayed a median survival time in series [7] (NTBC concentration 4% of the maintenance dose (5 mg/L)) of 22 days. The “rats surviving for at least 20 weeks” value in series [7] (PHH-transplanted FRG rats, NTBC^P (7+4) with Retrorsine pretreatment) is listed as 6/7. The “healthy survival of FRG rats” value in series [7] (maintenance of 100% NTBC (5 mg/L in daily water)) was “at least 1.5 years”. The “levels of ALT and AST” value in the series with FRG rats (4% NTBC compared with 10% NTBC) was “higher levels of ALT and AST”. Further, the “levels of ALT and AST” value in the series on FRG rats (programmed NTBC 7+4 compared with 5+4) is reported as “significantly higher”. Also, the “human albumin secretion level, mean” value in series [8] (NTBC^P (7+4) with Retrorsine pretreatment, 7 months after PHH transplantation) stood at 1.7 ± 0.3 mg/mL.

Turning to Retrorsine, the “human albumin secretion level” value was “increased significantly” in series [8] (RS pretreatment vs none, within 4 weeks after PHH transplantation, NTBC 7+4) and 90 µg/mL in [8] (Retrorsine combined with partial hepatectomy, before development of NTBC^P scheme). Moreover, in the series with rat livers [9], the “proportion of Ki67 positive cells in rat livers” value was “significantly lower”.
